We go through 1 compound from patent US20070134326A1, “Composition for releasing a weak base for an extended period of time” (priority 2003, published 2007).

The test system of one data set is glucose utilization. Conditions: PK/PD model estimate, diabetic patients; FDA Briefing Document, Avandia IND 43,468; cited from earlier work.
Another data set in a line: pH dependent solubility. It is filed as physicochemical. The following applies: around pH 2 vs around pH 7.

Consider `CN(CCOc1ccc(CC2SC(=O)NC2=O)cc1)c1ccccn1` (centres unmarked) [Compound A, 5-[4-[2-(N-methyl-N-(2pyridyl)amino)ethoxy]benzyl]thiazolidine-2,4-dione], for which, in the data set on glucose utilization, the “concentration associated with half-maximal stimulation (SC50) of glucose utilization” value was approximately 52 ng/mL. Besides, in the data set “pH dependent solubility”, the pH dependent solubility entry is recorded as “more soluble in the acidic conditions of the stomach (around pH 2) than in the near neutral conditions of the lower intestine (around pH 7)”.
